# Data taken from US20260364057A1, “AMIDE COMPOUND, AND COMPOSITION AND USE THEREOF” (SIMCERE ZAIMING PHARMACEUTICAL CO., LTD., priority 2022, published 2026).
# Target: T1, Human KIF18A (1-376aa) (Homo sapiens, UniProt Q8NI77)
# T1 construct: Human KIF18A (1-376aa) protease used in the experiments; purchased Shanghai Panchao Biotechnology Co., Ltd
# T1 sequence (Q8NI77 1-376): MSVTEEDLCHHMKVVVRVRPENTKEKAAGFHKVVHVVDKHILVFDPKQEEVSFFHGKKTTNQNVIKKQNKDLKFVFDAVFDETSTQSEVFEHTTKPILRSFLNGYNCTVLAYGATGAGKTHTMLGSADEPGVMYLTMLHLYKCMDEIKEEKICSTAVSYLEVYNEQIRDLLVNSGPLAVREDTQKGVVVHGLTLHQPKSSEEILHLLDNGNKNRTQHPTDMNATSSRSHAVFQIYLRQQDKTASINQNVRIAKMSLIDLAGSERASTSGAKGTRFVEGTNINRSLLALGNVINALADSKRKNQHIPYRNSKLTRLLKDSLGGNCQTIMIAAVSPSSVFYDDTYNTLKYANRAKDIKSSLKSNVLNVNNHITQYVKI
# Test: KIF18A enzyme activity assay (ADP-Glo)
# Format: biochemical
# Conditions: microtubule 50 μg/mL, ATP (Km 70 μM), room temperature, 15 min, read-out: KIF18A inhibitory activity IC50
# Method: Test Example 1: KIF18A Enzyme Activity Assay
# Based on the ADP-Glo™ Kinase Assay, the ADP amount generated in the reaction was detected to reflect the enzyme activity of KIF18A.
# Human KIF18A (1-376aa) […] used in the experiments, expressed by Shanghai Panchao Biotechnology Co., Ltd., was stored at −80 °C (no more than 5 freeze-thaw cycles).
# The assay kit (ADP-Glo™ Kinase Assay) was purchased from Promega (Cat. No. V9101) and stored at −30 °C. The kit detects the enzyme activity by measuring ADP generated in enzyme reaction. The KIF18A enzyme and ATP generate ADP. The remaining ATP in this reaction is consumed by the ADP-Glo reagent, while the ADP generated by the KIF18A enzyme reaction is converted back to ATP by the assay reagent. The ATP then reacts with luciferin in the presence of Ultra-Glo™ luciferase, producing luminescence. The luminescent signal is positively correlated with the activity of the KIF18A enzyme.
# Compounds were each subjected to 3-fold serial dilution starting from 10 μM to obtain 10 concentration points. The compounds and pure DMSO (control) were pipetted into wells of a 384-well plate using an Echo instrument, and the total volume of compound and DMSO was 100 nL; sample concentrations of gradient dilution were obtained by the instrument based on different ratios. Preparation of a KIF18A enzyme reaction buffer: […], 10 mM MgCl2, 0.01% Pluronic F-68, 1 μM Taxol, and 50 μg/mL Microtubule. KIF18A and the enzyme reaction buffer were mixed, and then the mixed solution was added to the 384-well plate and incubated at room temperature for 15 min. ATP (Km 70 μM) was then added to the mixed solution, and the mixed solution was incubated at room temperature for 15 min. 10 μL of ADP-Glo™ Reagent was well mixed with 10 μL of the mixed solution, and the mixture was incubated at room temperature for 40 min. Finally, 20 μL of ADP-Glo™ Detection Reagent was added, and the mixture was incubated at room temperature for 30 min. The chemiluminescent signal in each well was measured using an Envision plate reader (PerkinElmer, emission wavelength: 400-700 nm). In the experiment, 1 column of wells with no compound and no enzyme (chemiluminescence value was taken as [RLU]background) and 1 column of wells with enzyme but no compound (chemiluminescence value was taken as [RLU]enzyme) were provided. The chemiluminescence value of the compound adding group was taken as [RLU]cpd. The inhibition rate of the compound on […] was calculated according to the following equation: inhibition rate (%)=([RLU]enzyme−[RLU]cpd)/([RLU]enzyme−[RLU]background)×100%, and the inhibitory activity IC50 value of the compound on the enzyme activity was calculated using a four-parameter Logistic Model method. In the following equation, x represents the logarithmic form of the concentration of compound, and f (x) represents an effect value (inhibition rate of enzyme activity at the concentration): F(x)=(A+((B−A)/(1+((C/x)^D)))). A. B, C, and D are four parameters.
row,IC50 [nM],SMILES
1,< 200,O=C(Nc1ccnc2c1OCC1CCCCN21)c1ccc(NS(=O)(=O)CCO)cc1N1CCC2(CC1)CC2 (stereo not drawn) [Compound 10]
2,< 200,CN1CCc2ccc(NC(=O)c3ccc(NS(=O)(=O)CCO)cc3N3CCC4(CC3)CC4)nc21 [Compound 16]
3,< 200,O=C(Nc1cccc2c1nc1n2C2CC2C1)c1ccc(NS(=O)(=O)CCO)cc1N1CCC2(CC1)CC2 (stereo not drawn) [Compound 90]
4,< 200,Cn1c(N2CCC(F)(F)CC2)nc(NC(=O)c2ccc(NS(=O)(=O)CCO)cc2N2CCC3(CC2)CC3)cc1=O [Compound 2]
5,< 200,O=C(Nc1cc2nccn2c(N2CCC3(CC2)CC3)n1)c1ccc(NS(=O)(=O)CCO)cc1N1CCC2(CC1)CC2 [Compound 20]
6,< 500,O=C(Nc1cccc2c1nc1n2CC2(CC2)C1)c1ccc(NS(=O)(=O)CCO)cc1N1CCC2(CC1)CC2 [Compound 84]
7,< 200,O=C(Nc1cn(C2CC2)c(=O)c(N2CCC(F)(F)CC2)n1)c1ccc(NS(=O)(=O)CCO)cc1N1CCC2(CC1)CC2 [Compound 93]
8,< 200,CN1CCOc2ccc(NC(=O)c3ccc(NS(=O)(=O)CCO)cc3N3CCC4(CC3)CC4)nc21 [Compound 19]
9,< 200,Cc1ccnc2c(NC(=O)c3ccc(NS(=O)(=O)CCO)cc3N3CCC4(CC3)CC4)ccnc12 [Compound 7]
10,< 200,O=C(Nc1cccc2c1ccn2C1CCC1)c1ccc(NS(=O)(=O)CCO)cc1N1CCC2(CC1)CC2 [Compound 4]
11,< 200,Cc1cnc2c(NC(=O)c3ccc(NS(=O)(=O)CCO)cc3N3CCC4(CC3)CC4)snc2c1 [Compound 32]
12,< 200,O=C(Nc1snc2cc3c(nc12)CCCC3)c1ccc(NS(=O)(=O)CCO)cc1N1CCC2(CC1)CC2 [Compound 52]
13,< 200,O=C(Nc1cccc2c1nc1n2CC(F)(F)CC1)c1ccc(NS(=O)(=O)CCO)cc1N1CCC2(CC1)CC2 [Compound 25]
14,< 200,C=Cc1cc2c(NC(=O)c3ccc(NS(=O)(=O)CCO)cc3N3CCC4(CC3)CC4)ccnc2n1C [Compound 27]
15,< 200,O=C(Nc1cccc2c1oc1ccccc12)c1ccc(NS(=O)(=O)CCO)cc1N1CCC2(CC1)CC2 [Compound 8]
16,< 200,O=C(Nc1cccc2c1nc1n2CCC1)c1ccc(NS(=O)(=O)CCO)cc1N1CCC2(CC1)CC2 [Compound 23]
17,< 200,Cc1cc(NC(=O)c2ccc(NS(=O)(=O)CCO)cc2N2CCC3(CC2)CC3)c2nc3n(c2n1)CCCCC3 [Compound 79]
18,< 200,CC(C)n1ccc2c(NC(=O)c3ccc(NS(=O)(=O)CCO)cc3N3CCC4(CC3)CC4)ccnc21 [Compound 6]
19,< 200,O=C(Nc1cc2nccn2c(OCCC(F)(F)F)n1)c1ccc(NS(=O)(=O)CCO)cc1N1CCC2(CC1)CC2 [Compound 13]
20,< 200,CC(C)c1cnc2c(NC(=O)c3ccc(NS(=O)(=O)CCO)cc3N3CCC4(CC3)CC4)snc2c1 [Compound 57]

row,IC50 [nM],SMILES
1,< 500,CN1CCn2c(nc3c(NC(=O)c4ccc(NS(=O)(=O)CCO)cc4N4CCC5(CC4)CC5)cccc32)C1 [Compound 89]
2,< 200,CC1(C)C2Cn3c(nc4c(NC(=O)c5ccc(NS(=O)(=O)CCO)cc5N5CCC6(CC5)CC6)cccc43)C21 (stereo not drawn) [Compound 95]
3,< 200,O=C(Nc1cccc2c1nc1n2C2CC2CC1)c1ccc(NS(=O)(=O)CCO)cc1N1CCC2(CC1)CC2 (stereo not drawn) [Compound 69]
4,< 200,Cn1ccc2ccc(NC(=O)c3ccc(NS(=O)(=O)CCO)cc3N3CCC4(CC3)CC4)nc21 [Compound 15]
5,< 200,Cc1cc(NC(=O)c2ccc(NS(=O)(=O)CCO)cc2N2CCC3(CC2)CC3)c2nc3c(n2c1)CCCC3 [Compound 18]
6,< 200,Cc1nc2c(NC(=O)c3ccc(NS(=O)(=O)CCO)cc3N3CCC4(CC3)CC4)cccn2n1 [Compound 3]
7,< 200,O=C(Nc1ccc2cc3n(c2n1)CCCC3)c1ccc(NS(=O)(=O)CCO)cc1N1CCC2(CC1)CC2 [Compound 26]
8,< 200,O=C(Nc1ccnc2c1ccn2CCC(F)(F)F)c1ccc(NS(=O)(=O)CCO)cc1N1CCC2(CC1)CC2 [Compound 5]
9,< 200,O=C(Nc1ccc(=O)n(C2=CCC(F)(F)CC2)n1)c1ccc(NS(=O)(=O)CCO)cc1N1CCC2(CC1)CC2 [Compound 75]
10,< 200,O=C(Nc1cccc2c1nc1n2CCC2(CC2)C1)c1ccc(NS(=O)(=O)CCO)cc1N1CCC2(CC1)CC2 [Compound 91]
11,< 200,O=C(Nc1ccc(F)c2c1nc1n2CCCC1)c1ccc(NS(=O)(=O)CCO)cc1N1CCC2(CC1)CC2 [Compound 33]
12,< 500,O=C(Nc1cncc2c1nc1n2CCCC1)c1ccc(NS(=O)(=O)CCO)cc1N1CCC2(CC1)CC2 [Compound 43]
13,< 200,Cc1nc2c(NC(=O)c3ccc(NS(=O)(=O)CCO)cc3N3CCC4(CC3)CC4)cccn2c1C [Compound 9]
14,< 200,O=C(Nc1cccc2c1nc1n2C2CC(C1)C2)c1ccc(NS(=O)(=O)CCO)cc1N1CCC2(CC1)CC2 [Compound 46]
15,< 200,COC1CCn2c1nc1c(NC(=O)c3ccc(NS(=O)(=O)CCO)cc3N3CCC4(CC3)CC4)cccc12 (stereo not drawn) [Compound 63]
16,< 200,O=C(Nc1ccnc2c1nc1n2CCCC1)c1ccc(NS(=O)(=O)CCO)cc1N1CCC2(CC1)CC2 [Compound 36]
17,< 500,O=C(Nc1cccc2c1nc1n2CCC12CC2)c1ccc(NS(=O)(=O)CCO)cc1N1CCC2(CC1)CC2 [Compound 85]
18,< 200,COC1Cc2nc3c(NC(=O)c4ccc(NS(=O)(=O)CCO)cc4N4CCC5(CC4)CC5)cccc3n2C1 (stereo not drawn) [Compound 62]
19,< 500,O=C(Nc1cc2c(c(N3CCC(F)(F)CC3)n1)CCC2)c1ccc(NS(=O)(=O)CCO)cc1N1CCC2(CC1)CC2 [Compound 66]
